Results reported in the Kinase Knowledgebase extract (Sharma et al. 2016).

What follows are molecules tested against PIK3CB;PIK3CG;PIK3CD;PIK3CA (human) (UniProt P48736) (assay: Inhibition of PIK3CA/PIK3CB/PIK3CD/PIK3CG Kinase Activity).

SMILES | IC50 [nM]
COc1ccc(CCCO)c(Nc2nc3ccccc3nc2NS(=O)(=O)C2CCN(C(=O)OCc3ccccc3)CC2)c1 | 720
COc1ccc(C(=O)O)c(Nc2nc3ccccc3nc2NS(=O)(=O)c2cccnc2)c1 | 4680
COc1ccc(CCOC(=O)[C@@H](NC(=O)OCC2c3ccccc3-c3ccccc32)C(C)C)c(Nc2nc3ccccc3nc2NS(=O)(=O)c2cn(C)cn2)c1 | 1840
COc1ccc(CO)c(Nc2nc3ccccc3nc2NS(=O)(=O)c2cn(C)cn2)c1 | 470

Stronger by IC50, values ahead:

IC50 [nM] | SMILES
200 | COc1ccc(C(C)C)c(Nc2nc3ccccc3nc2NS(=O)(=O)c2cn(C)cn2)c1
130 | COc1ccc(CC2CCOCC2)c(Nc2nc3ccccc3nc2NS(C)(=O)=O)c1
100 | COc1ccc(CCOC(=O)[C@@H](N)C(C)C)c(Nc2nc3ccccc3nc2NS(=O)(=O)c2cn(C)cn2)c1
84 | COc1ccc(CCS(C)(=O)=O)c(Nc2nc3ccccc3nc2NS(=O)(=O)c2cn(C)cn2)c1
51 | COc1ccc(CC2CCN(C(C)=O)CC2)c(Nc2nc3ccccc3nc2NS(=O)(=O)c2cccnc2)c1
49 | COc1ccc(CN2CCN(C)CC2)c(Nc2nc3ccccc3nc2NS(=O)(=O)c2cccnc2)c1
30 | COc1ccc(CC2CCOCC2)c(Nc2nc3ccccc3nc2NS(=O)(=O)c2ccc(CN(C)C)cc2)c1
